In patent US20100137449A1, “SUBSTITUTED 1,3-CYCLOPENTADIONE MULTI-TARGET PROTEIN KINASE MODULATORS OF CANCER, ANGIOGENESIS AND THE INFLAMMATORY PATHWAYS ASSOCIATED THEREWITH” (METAPROTEOMICS, LLC, priority 2007, published 2010):

Assays:
Assay in all cases: KinaseProfiler Assay
MARK1(h) = MARK1(h) (Homo sapiens, UniProt Q9P0L2)
cKit(D816H)(h) = cKit(D816H)(h) (Homo sapiens, UniProt P10721, D816H)
Fyn(h) = Fyn(h) (Homo sapiens, UniProt P06241)
EphB4(h) = target: T1, EphB4(h) (Homo sapiens, UniProt P54760)
T1 sequence (P54760 16-987): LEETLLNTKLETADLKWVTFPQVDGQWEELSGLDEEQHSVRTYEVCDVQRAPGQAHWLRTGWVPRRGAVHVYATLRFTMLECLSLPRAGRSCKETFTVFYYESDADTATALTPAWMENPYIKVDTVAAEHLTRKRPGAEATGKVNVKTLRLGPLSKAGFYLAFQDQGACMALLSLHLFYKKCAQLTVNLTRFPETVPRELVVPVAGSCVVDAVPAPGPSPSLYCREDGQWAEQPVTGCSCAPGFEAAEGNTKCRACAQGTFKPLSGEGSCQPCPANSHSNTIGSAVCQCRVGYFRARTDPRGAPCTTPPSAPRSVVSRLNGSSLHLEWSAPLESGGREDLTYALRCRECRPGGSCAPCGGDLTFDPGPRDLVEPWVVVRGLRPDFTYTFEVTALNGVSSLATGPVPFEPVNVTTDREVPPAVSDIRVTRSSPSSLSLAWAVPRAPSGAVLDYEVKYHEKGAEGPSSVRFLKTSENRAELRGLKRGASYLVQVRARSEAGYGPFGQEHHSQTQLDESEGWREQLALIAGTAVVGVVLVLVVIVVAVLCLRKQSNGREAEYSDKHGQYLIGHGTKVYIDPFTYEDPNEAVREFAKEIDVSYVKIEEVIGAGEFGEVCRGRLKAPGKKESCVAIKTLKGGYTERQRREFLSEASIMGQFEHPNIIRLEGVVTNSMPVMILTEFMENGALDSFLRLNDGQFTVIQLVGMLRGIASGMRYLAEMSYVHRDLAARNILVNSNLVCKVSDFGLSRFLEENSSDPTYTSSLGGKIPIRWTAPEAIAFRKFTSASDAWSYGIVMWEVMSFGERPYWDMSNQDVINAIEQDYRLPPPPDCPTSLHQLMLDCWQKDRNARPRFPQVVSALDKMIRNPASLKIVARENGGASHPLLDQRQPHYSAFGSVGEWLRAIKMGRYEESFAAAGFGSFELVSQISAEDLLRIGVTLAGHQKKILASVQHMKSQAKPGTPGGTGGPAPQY

PI 3-Kinaseδ(h) = PI 3-Kinaseδ(h) (Homo sapiens, UniProt O00329)
Sequence of PI 3-Kinaseδ(h) (O00329 whole entry): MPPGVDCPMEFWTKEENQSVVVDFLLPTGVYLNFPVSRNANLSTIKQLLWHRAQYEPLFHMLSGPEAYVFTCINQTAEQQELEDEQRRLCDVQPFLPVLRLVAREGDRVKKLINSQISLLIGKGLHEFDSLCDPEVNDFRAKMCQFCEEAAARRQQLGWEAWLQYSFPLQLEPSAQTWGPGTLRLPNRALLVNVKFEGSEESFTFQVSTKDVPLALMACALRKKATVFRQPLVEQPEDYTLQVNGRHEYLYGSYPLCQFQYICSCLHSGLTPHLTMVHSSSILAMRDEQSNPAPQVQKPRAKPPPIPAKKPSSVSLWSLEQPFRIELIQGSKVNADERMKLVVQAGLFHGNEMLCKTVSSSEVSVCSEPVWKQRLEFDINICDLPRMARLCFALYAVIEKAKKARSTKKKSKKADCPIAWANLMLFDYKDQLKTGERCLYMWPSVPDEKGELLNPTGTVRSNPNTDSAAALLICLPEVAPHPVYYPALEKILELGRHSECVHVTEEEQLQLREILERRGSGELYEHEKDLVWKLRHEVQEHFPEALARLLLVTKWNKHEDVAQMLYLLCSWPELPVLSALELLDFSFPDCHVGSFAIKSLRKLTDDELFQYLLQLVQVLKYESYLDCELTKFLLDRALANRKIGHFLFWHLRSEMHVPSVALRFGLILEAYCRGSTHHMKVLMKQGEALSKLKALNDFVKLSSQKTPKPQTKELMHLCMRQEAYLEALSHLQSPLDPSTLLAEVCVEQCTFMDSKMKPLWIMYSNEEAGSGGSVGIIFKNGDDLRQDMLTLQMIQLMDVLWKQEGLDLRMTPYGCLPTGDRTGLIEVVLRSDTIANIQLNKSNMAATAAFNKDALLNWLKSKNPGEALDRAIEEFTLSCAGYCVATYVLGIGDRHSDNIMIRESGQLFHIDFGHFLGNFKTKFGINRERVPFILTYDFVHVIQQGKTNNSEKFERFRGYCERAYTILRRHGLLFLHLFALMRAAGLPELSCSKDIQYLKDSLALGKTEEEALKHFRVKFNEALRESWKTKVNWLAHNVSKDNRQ
Sequence of PI 3-Kinaseδ(h) (P27986 2-724 partner limits assumed): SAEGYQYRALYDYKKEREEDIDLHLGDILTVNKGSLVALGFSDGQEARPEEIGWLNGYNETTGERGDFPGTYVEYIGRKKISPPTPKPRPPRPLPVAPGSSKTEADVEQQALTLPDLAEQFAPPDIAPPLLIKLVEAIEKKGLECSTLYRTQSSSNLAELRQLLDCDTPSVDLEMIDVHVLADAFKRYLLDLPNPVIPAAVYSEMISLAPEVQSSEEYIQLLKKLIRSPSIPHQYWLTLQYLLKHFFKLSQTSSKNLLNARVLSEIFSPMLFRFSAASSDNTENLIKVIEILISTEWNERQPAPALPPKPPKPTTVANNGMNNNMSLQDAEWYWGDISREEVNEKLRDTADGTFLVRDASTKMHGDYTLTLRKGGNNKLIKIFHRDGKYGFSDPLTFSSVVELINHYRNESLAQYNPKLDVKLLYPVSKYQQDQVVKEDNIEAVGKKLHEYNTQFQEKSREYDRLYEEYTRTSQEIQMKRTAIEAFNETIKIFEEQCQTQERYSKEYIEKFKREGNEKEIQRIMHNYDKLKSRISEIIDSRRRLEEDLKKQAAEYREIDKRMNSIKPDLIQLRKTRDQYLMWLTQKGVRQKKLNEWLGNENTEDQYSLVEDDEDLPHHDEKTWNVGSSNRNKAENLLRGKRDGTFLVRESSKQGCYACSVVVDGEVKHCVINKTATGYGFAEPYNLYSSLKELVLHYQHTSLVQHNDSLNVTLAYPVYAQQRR

Txk(h) = target: T2, Txk(h) (Homo sapiens, UniProt P42681)
T2 sequence (P42681 1-527): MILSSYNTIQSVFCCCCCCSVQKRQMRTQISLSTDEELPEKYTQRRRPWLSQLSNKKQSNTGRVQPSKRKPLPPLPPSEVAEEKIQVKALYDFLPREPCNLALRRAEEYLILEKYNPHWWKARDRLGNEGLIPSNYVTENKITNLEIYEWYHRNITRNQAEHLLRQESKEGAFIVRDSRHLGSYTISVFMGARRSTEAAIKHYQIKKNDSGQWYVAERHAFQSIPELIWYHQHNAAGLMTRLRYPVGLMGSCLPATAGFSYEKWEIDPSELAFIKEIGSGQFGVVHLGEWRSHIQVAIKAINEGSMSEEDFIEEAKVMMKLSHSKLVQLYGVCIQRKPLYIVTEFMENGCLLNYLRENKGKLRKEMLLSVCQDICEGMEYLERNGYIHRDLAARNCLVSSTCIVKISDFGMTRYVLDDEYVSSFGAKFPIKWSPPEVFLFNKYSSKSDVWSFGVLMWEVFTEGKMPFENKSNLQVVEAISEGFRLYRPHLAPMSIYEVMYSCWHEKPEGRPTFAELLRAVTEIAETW

Syk(h) = Syk(h) (Homo sapiens, UniProt P43405)
PhKγ2(h) = target: T3, PhKγ2(h) (Homo sapiens, UniProt P15735)
T3 sequence (P15735 1-406): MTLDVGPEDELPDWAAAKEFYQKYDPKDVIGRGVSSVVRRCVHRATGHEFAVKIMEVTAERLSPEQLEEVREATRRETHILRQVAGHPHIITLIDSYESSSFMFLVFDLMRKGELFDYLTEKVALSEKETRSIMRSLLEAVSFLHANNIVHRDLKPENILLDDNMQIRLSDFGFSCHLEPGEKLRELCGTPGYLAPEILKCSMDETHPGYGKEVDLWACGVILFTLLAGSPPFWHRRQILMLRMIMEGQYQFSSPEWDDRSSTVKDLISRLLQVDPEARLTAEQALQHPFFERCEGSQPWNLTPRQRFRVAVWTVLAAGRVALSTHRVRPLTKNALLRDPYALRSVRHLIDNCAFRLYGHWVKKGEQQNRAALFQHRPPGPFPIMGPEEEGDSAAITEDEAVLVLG

Sequence of cKit(D816H)(h) (P10721 26-976 D816H): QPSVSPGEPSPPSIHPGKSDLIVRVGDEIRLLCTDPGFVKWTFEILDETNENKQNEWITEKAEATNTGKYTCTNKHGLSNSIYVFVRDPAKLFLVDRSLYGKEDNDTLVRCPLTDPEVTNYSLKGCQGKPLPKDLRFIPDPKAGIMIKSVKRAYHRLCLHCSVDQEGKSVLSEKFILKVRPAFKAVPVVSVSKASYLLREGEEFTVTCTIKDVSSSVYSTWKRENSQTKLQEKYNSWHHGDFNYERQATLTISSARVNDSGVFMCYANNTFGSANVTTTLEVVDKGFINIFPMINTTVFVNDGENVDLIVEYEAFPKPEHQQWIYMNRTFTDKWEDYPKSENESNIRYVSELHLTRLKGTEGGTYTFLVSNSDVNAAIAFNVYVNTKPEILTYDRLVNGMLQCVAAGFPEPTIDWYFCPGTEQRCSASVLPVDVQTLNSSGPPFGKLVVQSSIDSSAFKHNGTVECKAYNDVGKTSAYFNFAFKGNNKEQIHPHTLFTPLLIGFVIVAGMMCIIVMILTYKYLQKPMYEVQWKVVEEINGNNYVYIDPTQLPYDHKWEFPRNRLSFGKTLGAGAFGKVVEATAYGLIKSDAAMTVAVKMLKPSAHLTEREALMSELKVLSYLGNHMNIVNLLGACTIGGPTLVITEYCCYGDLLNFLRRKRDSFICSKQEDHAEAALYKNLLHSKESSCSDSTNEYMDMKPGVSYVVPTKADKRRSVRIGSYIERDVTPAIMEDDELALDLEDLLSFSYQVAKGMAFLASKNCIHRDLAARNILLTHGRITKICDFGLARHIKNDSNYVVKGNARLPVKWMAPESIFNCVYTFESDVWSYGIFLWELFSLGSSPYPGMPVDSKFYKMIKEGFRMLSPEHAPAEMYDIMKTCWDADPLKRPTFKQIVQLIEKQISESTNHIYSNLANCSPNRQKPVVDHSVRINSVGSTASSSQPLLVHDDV
Sequence of MARK1(h) (Q9P0L2 whole entry): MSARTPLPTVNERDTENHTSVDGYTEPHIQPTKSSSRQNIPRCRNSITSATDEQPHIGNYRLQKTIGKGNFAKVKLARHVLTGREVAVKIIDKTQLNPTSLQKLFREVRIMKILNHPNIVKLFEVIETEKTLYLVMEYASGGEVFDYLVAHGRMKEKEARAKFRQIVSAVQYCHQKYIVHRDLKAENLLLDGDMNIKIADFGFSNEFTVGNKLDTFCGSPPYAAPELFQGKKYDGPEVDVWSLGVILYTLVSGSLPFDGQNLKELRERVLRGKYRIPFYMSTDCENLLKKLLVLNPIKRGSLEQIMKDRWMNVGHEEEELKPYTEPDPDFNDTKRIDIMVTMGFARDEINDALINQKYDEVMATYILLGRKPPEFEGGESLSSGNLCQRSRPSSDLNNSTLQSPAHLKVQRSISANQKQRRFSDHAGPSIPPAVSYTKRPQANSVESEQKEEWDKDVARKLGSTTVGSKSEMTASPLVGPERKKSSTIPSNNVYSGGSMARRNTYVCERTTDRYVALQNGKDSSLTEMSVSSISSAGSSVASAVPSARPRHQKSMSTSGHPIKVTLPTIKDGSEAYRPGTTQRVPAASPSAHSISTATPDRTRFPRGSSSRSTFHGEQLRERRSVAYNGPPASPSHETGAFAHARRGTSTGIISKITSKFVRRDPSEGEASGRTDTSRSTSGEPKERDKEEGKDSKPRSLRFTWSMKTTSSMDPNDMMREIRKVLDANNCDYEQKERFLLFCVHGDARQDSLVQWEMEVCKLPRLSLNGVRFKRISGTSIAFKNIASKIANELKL
Sequence of Fyn(h) (P06241 whole entry): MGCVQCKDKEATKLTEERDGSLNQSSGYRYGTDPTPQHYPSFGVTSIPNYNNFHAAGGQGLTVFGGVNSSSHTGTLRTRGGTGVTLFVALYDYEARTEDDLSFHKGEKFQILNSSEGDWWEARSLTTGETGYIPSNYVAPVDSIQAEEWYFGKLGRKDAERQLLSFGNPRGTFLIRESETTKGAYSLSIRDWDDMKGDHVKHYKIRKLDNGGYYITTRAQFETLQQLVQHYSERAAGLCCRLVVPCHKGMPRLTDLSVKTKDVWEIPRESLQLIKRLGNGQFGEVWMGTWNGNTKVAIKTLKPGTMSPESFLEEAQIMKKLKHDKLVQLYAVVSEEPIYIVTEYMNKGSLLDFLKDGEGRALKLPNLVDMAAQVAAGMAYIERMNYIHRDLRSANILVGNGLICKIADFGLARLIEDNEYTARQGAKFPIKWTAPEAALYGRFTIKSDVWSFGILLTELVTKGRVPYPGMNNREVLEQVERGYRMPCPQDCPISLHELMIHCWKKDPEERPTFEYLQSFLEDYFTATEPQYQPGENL

CC(C)CCC(=O)[C@]1(O)C(O)=C(C(=O)C(C)C)C(=O)[C@H]1CCC(C)C [TH2, tetrahydroiso-cohumulone]
kinase inhibition (MARK1(h); 1 μg/ml): 109% of control | kinase inhibition (MARK1(h); 5 μg/ml): 110% of control | kinase inhibition (MARK1(h); 25 μg/ml): 97% of control | kinase inhibition (MARK1(h); 50 μg/ml): 90% of control | kinase inhibition (MARK1(h); 100 μg/ml): 63% of control | kinase inhibition (cKit(D816H)(h); 1 μg/ml): 123% of control | kinase inhibition (cKit(D816H)(h); 5 μg/ml): 116% of control | kinase inhibition (cKit(D816H)(h); 25 μg/ml): 104% of control | kinase inhibition (cKit(D816H)(h); 50 μg/ml): 114% of control | kinase inhibition (cKit(D816H)(h); 100 μg/ml): 108% of control | kinase inhibition (Fyn(h); 1 μg/ml): 103% of control | kinase inhibition (Fyn(h); 5 μg/ml): 105% of control | kinase inhibition (Fyn(h); 25 μg/ml): 103% of control | kinase inhibition (Fyn(h); 50 μg/ml): 105% of control | kinase inhibition (Fyn(h); 100 μg/ml): 89% of control | kinase inhibition (EphB4(h); 1 μg/ml): 106% of control | kinase inhibition (EphB4(h); 5 μg/ml): 112% of control | kinase inhibition (EphB4(h); 25 μg/ml): 116% of control | kinase inhibition (EphB4(h); 50 μg/ml): 109% of control | kinase inhibition (EphB4(h); 100 μg/ml): 98% of control | kinase inhibition (PI 3-Kinaseδ(h); 1 μg/ml): 97% of control | kinase inhibition (PI 3-Kinaseδ(h); 5 μg/ml): 89% of control | kinase inhibition (PI 3-Kinaseδ(h); 25 μg/ml): 62% of control | kinase inhibition (PI 3-Kinaseδ(h); 50 μg/ml): 18% of control | kinase inhibition (PI 3-Kinaseδ(h); 100 μg/ml): 52% of control | kinase inhibition (Txk(h); 1 μg/ml): 114% of control | kinase inhibition (Txk(h); 5 μg/ml): 121% of control | kinase inhibition (Txk(h); 25 μg/ml): 121% of control | kinase inhibition (Txk(h); 50 μg/ml): 110% of control | kinase inhibition (Txk(h); 100 μg/ml): 107% of control | kinase inhibition (Syk(h); 1 μg/ml): 135% of control | kinase inhibition (Syk(h); 5 μg/ml): 120% of control | kinase inhibition (Syk(h); 25 μg/ml): 63% of control | kinase inhibition (Syk(h); 50 μg/ml): 37% of control | kinase inhibition (Syk(h); 100 μg/ml): 47% of control | kinase inhibition (PhKγ2(h); 1 μg/ml): 112% of control | kinase inhibition (PhKγ2(h); 5 μg/ml): 116% of control | kinase inhibition (PhKγ2(h); 25 μg/ml): 114% of control | kinase inhibition (PhKγ2(h); 50 μg/ml): 88% of control | kinase inhibition (PhKγ2(h); 100 μg/ml): 63% of control
